Laboratory results as given in the CheMixHub ionic liquid set.
± gives the uncertainty stated by the source.

Test: xn = mol fraction of the nth substance listed

CCCCCCCC[n+]1ccc2ccccc2c1.O=S(=O)([N-]S(=O)(=O)C(F)(F)F)C(F)(F)F + CCCCO
101 kPa
Settings	viscosity [mPa·s]
298.15 K, x2 = 0.3134	122.9 ± 2.4
298.15 K, x2 = 0.5032	55.19 ± 0.63
308.15 K, x2 = 0.3134	71.3 ± 1.1
308.15 K, x2 = 0.6915	15.21 ± 0.17
318.15 K, x2 = 0.7937	6.33 ± 0.06
328.15 K, x2 = 0.1708	45.14 ± 0.58
338.15 K, x2 = 0.3134	21.01 ± 0.25
338.15 K, x2 = 0.6915	5.91 ± 0.06
338.15 K, x2 = 0.7937	3.66 ± 0.03

CCCC[P+](CCCC)(CCCC)CCCC.[Br-] + OCC(O)CO + O
viscosity [mPa·s], 101.3 kPa
Settings	x1 = 0.03663, x2 = 0.07337	x1 = 0.06194, x2 = 0.1241	x1 = 0.09824, x2 = 0.1968	x1 = 0.1305, x2 = 0.2615	x1 = 0.1725, x2 = 0.3455	x1 = 0.1845, x2 = 0.3695	x1 = 0.2344, x2 = 0.4696	x1 = 0.2594, x2 = 0.5196	x1 = 0.3007, x2 = 0.6023	x1 = 0.333, x2 = 0.667
293.15 K	9.46 ± 0.98	24.1 ± 2.5	60.1 ± 6.1	99 ± 10	156 ± 16	170 ± 17	249 ± 25	300 ± 31	393 ± 41	468 ± 49
298.15 K	7.51 ± 0.77	18.5 ± 1.9	45.8 ± 4.6	72.1 ± 7.3	109 ± 11	120 ± 12	176 ± 18	212 ± 22	276 ± 28	329 ± 34
303.15 K	6.25 ± 0.64	15 ± 1.5	35.7 ± 3.6	55 ± 5.5	79.9 ± 8	90.9 ± 9.2	130 ± 13	154 ± 16	198 ± 20	235 ± 24
308.15 K	5.21 ± 0.53	12 ± 1.2	28.3 ± 2.9	42.6 ± 4.3	62.8 ± 6.3	67.8 ± 6.8	96.5 ± 9.7	118 ± 12	145 ± 15	172 ± 17
313.15 K	4.15 ± 0.43	9.9 ± 1	22.1 ± 2.2	32.4 ± 3.3	47 ± 4.7	49.3 ± 5	66.5 ± 6.7	88.4 ± 8.9	99 ± 10	116 ± 12
318.15 K	3.74 ± 0.38	8.49 ± 0.86	18 ± 1.8	26.4 ± 2.7	38.4 ± 3.9	41.4 ± 4.2	57.6 ± 5.8	67.5 ± 6.8	83.2 ± 8.4	97.1 ± 9.8
323.15 K	3.26 ± 0.33	7.02 ± 0.71	14.5 ± 1.5	21 ± 2.1	29 ± 2.9	31.2 ± 3.1	42.5 ± 4.3	50.4 ± 5.1	57.9 ± 5.8	68.4 ± 6.9

CC[n+]1ccn(C)c1.O=S(=O)([O-])C(F)(F)F + F[B-](F)(F)F.[Li+]
101 kPa, x1 = 1
Settings	electrical conductivity [S/m]
288.15 K	0.605 ± 0.061
298.15 K	0.859 ± 0.086
333.15 K	2.24 ± 0.22

CCCCOC(C)=O + CCCCCCCCn1cc[n+](C)c1.F[B-](F)(F)F
Settings	viscosity [mPa·s]
298.15 K, 101 kPa, x1 = 1	0.7 ± 0.01

[Br-].[PH3+]CCCCCCCCCCCCCC(c1ccccc1)(c1ccccc1)c1ccccc1 + O
300 K, 101 kPa
Settings	electrical conductivity [S/m]
x2 = 0.503	0.00198 ± 5e-05
x2 = 0.603	0.00058 ± 5e-05
x2 = 0.802	0.00038 ± 5e-05

CCCCCCCC[N+](C)(C)C.[Br-] + O
298.15 K, 101 kPa
Settings	viscosity [mPa·s]
x1 = 0.000891	0.9226
x1 = 0.001742	0.956
x1 = 0.002174	0.9692
x1 = 0.002616	0.9795
x1 = 0.003154	0.9978
x1 = 0.003538	1.012
x1 = 0.004276	1.036
x1 = 0.004645	1.048
x1 = 0.005039	1.058
x1 = 0.005479	1.076

CC[NH+](CC)CC.O=[N+]([O-])[O-] + CC[NH3+].O=[N+]([O-])[O-]
101 kPa, frequency 0.00293 MHz
Settings	electrical conductivity [S/m]
293.15 K, x1 = 0.149	1.28
293.15 K, x1 = 0.1997	1.15
293.15 K, x1 = 0.25	0.97
293.15 K, x1 = 0.2993	0.86
293.15 K, x1 = 0.3475	0.79
298.15 K, x1 = 0.149	1.52
303.15 K, x1 = 0.3475	1.12
313.15 K, x1 = 0.3995	1.38
313.15 K, x1 = 0.4472	1.23
323.15 K, x1 = 0.0999	3.31
323.15 K, x1 = 0.3995	1.8

101 kPa
Settings	viscosity [mPa·s]
293.15 K, x1 = 0.149	55.3
293.15 K, x1 = 0.1997	62.8
293.15 K, x1 = 0.25	69.1
293.15 K, x1 = 0.2993	76.9
293.15 K, x1 = 0.3475	83.5
298.15 K, x1 = 0.149	45.3
303.15 K, x1 = 0.3475	54.8
313.15 K, x1 = 0.3995	40.8
313.15 K, x1 = 0.4472	44.4
323.15 K, x1 = 0.0999	19.7
323.15 K, x1 = 0.3995	29.1
323.15 K, x1 = 0.5003	33.1
328.15 K, x1 = 0.149	18.1
328.15 K, x1 = 0.3995	25.1
328.15 K, x1 = 0.5003	28.3
328.15 K, x1 = 0.5485	27.4
333.15 K, x1 = 0.1997	17.5
333.15 K, x1 = 0.5003	24.7
333.15 K, x1 = 0.5485	23.9
338.15 K, x1 = 0.2993	17.3
338.15 K, x1 = 0.4472	20.3
343.15 K, x1 = 0.0499	11.6
343.15 K, x1 = 0.2993	15.3
348.15 K, x1 = 0.0999	11.1
348.15 K, x1 = 0.2993	13.7
348.15 K, x1 = 0.4472	15.7
353.15 K, x1 = 0.2993	12.4

CC[n+]1ccn(C)c1.O=S(=O)([O-])C(F)(F)F + CS(C)=O
100 kPa
Settings	viscosity [mPa·s]
298.15 K, x1 = 0.1068	3.7 ± 1.1
298.15 K, x1 = 0.3077	7.9 ± 2.4
318.15 K, x1 = 0.4023	7 ± 2.1
323.15 K, x1 = 0.4933	8.2 ± 2.5

CCCCCCCC[n+]1ccc2ccccc2c1.O=S(=O)([N-]S(=O)(=O)C(F)(F)F)C(F)(F)F + Cc1ccccc1
101 kPa
Settings	viscosity [mPa·s]
298.15 K, x2 = 0.0818	308 ± 19
298.15 K, x2 = 0.4775	50.6 ± 1.1
298.15 K, x2 = 0.4902	48.5 ± 1.1
308.15 K, x2 = 0.0818	162.6 ± 6.9
308.15 K, x2 = 0.2746	81.6 ± 2.1
308.15 K, x2 = 0.4295	41.74 ± 0.93
308.15 K, x2 = 0.4775	32.56 ± 0.72
318.15 K, x2 = 0.1949	67 ± 1.6
318.15 K, x2 = 0.6148	11.19 ± 0.24
318.15 K, x2 = 0.8672	2.19 ± 0.05
328.15 K, x2 = 0.3638	25.85 ± 0.58
328.15 K, x2 = 0.4295	19.34 ± 0.43
328.15 K, x2 = 0.5467	12.11 ± 0.27
328.15 K, x2 = 0.7004	5.51 ± 0.12
338.15 K, x2 = 0	44.8 ± 1
338.15 K, x2 = 0.4775	11.71 ± 0.26
